Data published in patent US12503475B2 (Centessa Pharmaceuticals (UK) Limited, priority 2020, dated 2025).

Target: T1, human orexin type 2 receptor (hOX2R) (Homo sapiens, UniProt O43614)
T1 construct: expressed in transfected cells
T1 sequence (O43614 1-444): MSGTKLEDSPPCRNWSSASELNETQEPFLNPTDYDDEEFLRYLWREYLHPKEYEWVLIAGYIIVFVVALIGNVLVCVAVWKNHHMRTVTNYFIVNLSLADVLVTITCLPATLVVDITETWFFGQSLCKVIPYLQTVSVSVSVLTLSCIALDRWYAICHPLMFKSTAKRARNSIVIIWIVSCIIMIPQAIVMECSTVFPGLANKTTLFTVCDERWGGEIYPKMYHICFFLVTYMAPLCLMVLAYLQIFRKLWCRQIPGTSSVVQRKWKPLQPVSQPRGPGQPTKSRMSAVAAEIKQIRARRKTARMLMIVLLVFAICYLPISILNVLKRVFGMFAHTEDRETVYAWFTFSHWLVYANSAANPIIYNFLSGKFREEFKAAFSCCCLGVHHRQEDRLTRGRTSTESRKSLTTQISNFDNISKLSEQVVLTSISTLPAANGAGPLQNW
Test: Measurement of orexin type 2 receptor agonist activity (FLIPR calcium fluorescence)
Assay type: cell-based
Settings: CHO cells expressing hOX2R, FLIPR calcium fluorescence; for EC50: read-out: hOx2 pEC50 (converted); for Emax: CHO, read-out: hOx2 Emax (%)
Outline: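 Agonism was read as fluorescence in cells stably expressing human OX2R. E. is the response at 10 μM relative to orexin A as full agonist (100%).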

| EC50 | Emax | Molecule | hOx2 Emax (%) | hOx2 pEC50 |
| --- | --- | --- | --- | --- |
| 1 to 10 nM | 90 to 100% | O=C([C@H]1C[C@@H](F)C1)N1CC2(CC2)[C@H](NS(=O)(=O)C(F)F)[C@@H]1Cc1cccc(-c2ccccc2)c1F [Compound 201, 1,1-difluoro-N-((6S,7S)-6-((2-fluoro-[1,1′-biphenyl]-3-yl)methyl)-5-((1s,3s)-3-fluorocyclobutane-1-carbonyl)-5-azaspiro[2.4]heptan-7-yl)methanesulfonamide] | – | – |
| 0.0794 to 1 nM | 90 to 100% | C[C@H](CF)NC(=O)N1CC2(CC2)[C@H](NS(=O)(=O)CF)[C@@H]1Cc1cc(F)cc(-c2ccccc2)c1F [Compound 375, (6S,7S)-6-((2,5-difluoro-[1,1′-biphenyl]-3-yl)methyl)-7-((fluoromethyl)sulfonamido)-N-((R)-1-fluoropropan-2-yl)-5-azaspiro[2.4]heptane-5-carboxamide] | – | – |
| 1 to 10 nM | 90 to 100% | COC[C@H](O)C(=O)N1CC2(CC2)[C@H](NS(=O)(=O)C(F)F)[C@@H]1Cc1cccc(-c2ccccc2)c1F [Compound 183, 1,1-difluoro-N-((6S,7S)-6-((2-fluoro-[1,1′-biphenyl]-3-yl)methyl)-5-((S)-2-hydroxy-3-methoxypropanoyl)-5-azaspiro[2.4]heptan-7-yl)methanesulfonamide] | – | – |
| 1 to 10 nM | 90 to 100% | O=C([C@H](O)CF)N1CC2(CC2)[C@H](NS(=O)(=O)CF)[C@@H]1Cc1cc(F)cc(-c2cc(F)cc(F)c2)c1F [Compound 373, 1-fluoro-N-((6S,7S)-5-((S)-3-fluoro-2-hydroxypropanoyl)-6-((2,3′,5,5′-tetrafluoro-[1,1′-biphenyl]-3-yl)methyl)-5-azaspiro[2.4]heptan-7-yl)methanesulfonamide] | – | – |
| 0.0794 to 1 nM | 90 to 100% | O=C([C@H]1CCO1)N1CC2(CC2)[C@H](NS(=O)(=O)CF)[C@@H]1Cc1cccc(-c2cccc(C(F)F)c2)c1F [Compound 196, N-((6S,7S)-6-((3′-(difluoromethyl)-2-fluoro-[1,1′-biphenyl]-3-yl)methyl)-5-((R)-oxetane-2-carbonyl)-5-azaspiro[2.4]heptan-7-yl)-1-fluoromethanesulfonamide] | – | – |
| 1 to 10 nM | 90 to 100% | CS(=O)(=O)N[C@@H]1[C@H](Cc2cc(F)cc(-c3ccccc3)c2F)N(C(=O)[C@H]2CCO2)CC12CC2 [Compound 59, N-((6S,7S)-6-((2,5-difluoro-[1,1′-biphenyl]-3-yl)methyl)-5-((R)-oxetane-2-carbonyl)-5-azaspiro[2.4]heptan-7-yl)methanesulfonamide] | – | – |
| 1 to 10 nM | 90 to 100% | C[C@H](O)CN(C)C(=O)N1CC2(CC2)[C@H](NS(C)(=O)=O)[C@@H]1Cc1cccc(-c2ccccc2)c1F [Compound 323, (6S,7S)-6-((2-fluoro-[1,1′-biphenyl]-3-yl)methyl)-N-((S)-2-hydroxypropyl)-N-methyl-7-(methylsulfonamido)-5-azaspiro[2.4]heptane-5-carboxamide] | – | – |
| 1 to 10 nM | 90 to 100% | O=C(NCC(F)(F)F)N1CC2(CC2)[C@H](NS(=O)(=O)CF)[C@@H]1Cc1cccc(-c2ccccc2)c1F [Compound 211, (6S,7S)-6-((2-fluoro-[1,1′-biphenyl]-3-yl)methyl)-7-((fluoromethyl)sulfonamido)-N-(2,2,2-trifluoroethyl)-5-azaspiro[2.4]heptane-5-carboxamide] | – | – |
| 10 to 100 nM | 90 to 100% | CS(=O)(=O)NC1C(Cc2cccc(-c3ccccc3)c2)N(C(=O)C23CC2C3)CC12CC2 (racemic) [Compound 66, N-(6-([1,1′-biphenyl]-3-ylmethyl)-5-(bicyclo[1.1.0]butane-1-carbonyl)-5-azaspiro[2.4]heptan-7-yl)methanesulfonamide] | – | – |
| 10 to 100 nM | 80 to 90% | COC1(C(=O)N2CC3(CC3)[C@H](NS(C)(=O)=O)[C@@H]2Cc2cccc(-c3ccccc3)c2)CC1 [Compound 60, N-((6S,7S)-6-([1,1′-biphenyl]-3-ylmethyl)-5-(1-methoxycyclopropane-1-carbonyl)-5-azaspiro[2.4]heptan-7-yl)methanesulfonamide] | – | – |
| 1 to 10 nM | 90 to 100% | O=C(NCC1(F)CC1)N1CC2(CC2)[C@H](NS(=O)(=O)C(F)F)[C@@H]1Cc1cccc(-c2ccccc2)c1F [Compound 166, (6S,7S)-7-((difluoromethyl)sulfonamido)-6-((2-fluoro-[1,1′-biphenyl]-3-yl)methyl)-N-((1-fluorocyclopropyl)methyl)-5-azaspiro[2.4]heptane-5-carboxamide] | – | – |
| – | – | (6S,7S)-6-(2,5-difluoro-[1,1′- biphenyl]-3-yl)methyl)-7- ((difluoromethyl)sulfonamido)- N-((S)-1-fluoroethyl)-5- azaspiro[2.4]heptane-5- carboxamide [Compound 216] | A (Emax ranging between 90 and 100) | **** (pEC50 ranging between 8.0 and 9.0) |
| 1 to 10 nM | 90 to 100% | O=C([C@H]1CCO1)N1CC2(CC2)[C@H](NS(=O)(=O)C2CC2)[C@@H]1Cc1cccc(-c2ccccc2)c1 [Compound 42, N-((6S,7S)-6-([1,1′-biphenyl]-3-ylmethyl)-5-((R)-oxetane-2-carbonyl)-5-azaspiro[2.4]heptan-7-yl)cyclopropanesulfonamide] | – | – |
| 1 to 10 nM | 90 to 100% | N#CC1(C(=O)N2CC3(CC3)[C@H](NS(=O)(=O)CF)[C@@H]2Cc2cccc(-c3ccccc3)c2F)CCC1 [Compound 181, N-((6S,7S)-5-(1-cyanocyclobutane-1-carbonyl)-6-((2-fluoro-[1,1′-biphenyl]-3-yl)methyl)-5-azaspiro[2.4]heptan-7-yl)-1-fluoromethanesulfonamide] | – | – |
| 0.0794 to 1 nM | 90 to 100% | O=C([C@H]1CCO1)N1CC2(CC2)[C@H](NS(=O)(=O)C2CC2)[C@@H]1Cc1cccc(-c2ccccc2)c1F [Compound 69, N-((6S 7S)-6-((2-fluoro-[1,1′-biphenyl]-3-yl)methyl)-5-((R)-oxetane-2-carbonyl)-5-azaspiro[2.4]heptan-7-yl)cyclopropanesulfonamide] | – | – |
| 1 to 10 nM | 90 to 100% | CCS(=O)(=O)N[C@@H]1[C@H](Cc2cccc(-c3ccccc3)c2F)N(C(=O)[C@H](O)CF)CC12CC2 [Compound 178] | – | – |
| 0.0794 to 1 nM | 90 to 100% | C[C@H](CF)NC(=O)N1CC2(CC2)[C@H](NS(C)(=O)=O)[C@@H]1Cc1cccc(-c2ccccc2)c1F [Compound 101, (6S,7S)-6-((2-fluoro-[1,1′-biphenyl]-3-yl)methyl)-N-((R)-1-fluoropropan-2-yl)-7-(methylsulfonamido)-5-azaspiro[2.4]heptane-5-carboxamide] | – | – |
| 10 to 100 nM | 90 to 100% | CS(=O)(=O)N[C@@H]1[C@H](Cc2cccc(-c3ccccc3)c2F)N(C(=O)[C@@H]2CCO2)CC12CC2 [Compound 20, N-((6S,7S)-6-((2-fluoro-[1,1′-biphenyl]-3-yl)methyl)-5-((S)-oxetane-2-carbonyl)-5-azaspiro[2.4]heptan-7-yl)methanesulfonamide] | – | – |
| 1 to 10 nM | 90 to 100% | O=C([C@H](O)CF)N1CC2(CC2)[C@H](NS(=O)(=O)CF)[C@@H]1Cc1cc(F)cc(-c2ccccc2)c1F [Compound 190, N-((6S,7S)-6-((2,5-difluoro-[1,1′-biphenyl]-3-yl)methyl)-5-((S)-3-fluoro-2-hydroxypropanoyl)-5-azaspiro[2.4]heptan-7-yl)-1-fluoromethanesulfonamide] | – | – |
| 1 to 10 nM | 90 to 100% | O=C([C@H]1CCO1)N1CC2(CC2)[C@H](NS(=O)(=O)C(F)F)[C@@H]1Cc1cccc(-c2cc(F)cc(F)c2)c1 [Compound 214, N-((6S,7S)-6-((3′,5′-difluoro-[1,1′-biphenyl]-3-yl)methyl)-5-((R)-oxetane-2-carbonyl)-5-azaspiro[2.4]heptan-7-yl)-1,1-difluoromethanesulfonamide] | – | – |
| 1 to 10 nM | 90 to 100% | O=C(NCC1(F)CC1)N1CC2(CC2)[C@H](NS(=O)(=O)C(F)F)[C@@H]1Cc1cc(F)cc(-c2cc(F)cc(F)c2)c1F [Compound 416, (6S,7S)-7-((difluoromethyl)sulfonamido)-N-((1-fluorocyclopropyl)methyl)-6-((2,3′,5,5′-tetrafluoro-[1,1′-biphenyl]-3-yl)methyl)-5-azaspiro[2.4]heptane-5-carboxamide] | – | – |
| 1 to 10 nM | 90 to 100% | CCNC(=O)N1CC2(CC2)[C@H](NS(C)(=O)=O)[C@@H]1Cc1cccc(-c2ccccc2)c1 (racemic) [Compound 303, 6-([1,1′-biphenyl]-3-ylmethyl)-N-ethyl-7-(methylsulfonamido)-5-azaspiro[2.4]heptane-5-carboxamide] | – | – |
| 0.0794 to 1 nM | 90 to 100% | O=C([C@H](O)CF)N1CC2(CC2)[C@H](NS(=O)(=O)C(F)F)[C@@H]1Cc1cccc(-c2cc(F)cc(F)c2)c1F [Compound 392, 1,1-difluoro-N-((6S,7S)-5-((S)-3-fluoro-2-hydroxypropanoyl)-6-((2,3′,5′-trifluoro-[1,1′-biphenyl]-3-yl)methyl)-5-azaspiro[2.4]heptan-7-yl)methanesulfonamide] | – | – |
| 1 to 10 nM | 90 to 100% | O=C([C@H]1CCO1)N1CC2(CC2)[C@H](NS(=O)(=O)CF)[C@@H]1Cc1cccc(-c2cc(F)ccc2F)c1F [Compound 169, 1-fluoro-N-((6S,7S)-5-((R)-oxetane-2-carbonyl)-6-((2,2′,5′-trifluoro-[1,1′-biphenyl]-3-yl)methyl)-5-azaspiro[2.4]heptan-7-yl)methanesulfonamide] | – | – |
